Reference: US10231907B2, “Compositions for improving the health and appearance of skin” (Algenist Holdings, Inc., priority 2006, dated 2019)

Assays:
human PMN leukocytes = test: PMN migration (chemotaxis chamber, FMLP); type: cell-based; details: 2 ug/ml, mean ± SD
Protocol: Microalgal polysaccharide materials were tested for their ability to influence the migration of polymorphonucelar (PMN) leukocytes in response to chemotractant substances. Leukocyte migration is essential for leukocyte accumulation at sites of inflammation. During the inflammatory response, leukocytes migrate towards the source of a chemotractant substance in a process called chemotaxis. In vitro methods to study chemotaxis often use a membrane based approach, where a chemoattractant is placed on one side of a membrane and PMN leukocytes are placed on the other. Chemotaxis is then measured by quantifying the number of leukocytes which then migrate through the filter towards the chemotractant substance.
For this study, human PMN leukocytes were isolated via density centrifugation from freshly drawn blood. The PMN cells were loaded with a Calcein AM, a fluorescent dye. […] The chemotaxis chamber was be incubated and at the end of the incubation period the fluorescence of the bottom wells was read and used as an index of PMN migration. […]
Heparinized whole blood (20-30 ml) was collected from a healthy human donor, layered over a density gradient (Histopaque 1077 and Histopaque 1119) and centrifuged at 400 g for 30 min. […] After the incubation, the PMN cells were washed twice with PBS, counted and resuspended in RPMI-FCS at 1-5×10^6 cells/ml. […]

elastase = test: Anti-elastase assay (fibroblast lysate, STANA substrate); type: biochemical, human; details: 100 μM
Protocol: Human dermal fibroblasts were cultured and used as a source of the elastase enzyme. This enzyme was be partially purified from the fibroblasts by lysing the cells in an elastase buffer and retaining the soluble portion of the lysate. Portions of this fibroblast lysate were then be incubated with test materials a synthetic elastase substrate, Suc-(Ala3)-p-Nitroaniline (STANA). Elastase acts upon this substrate to release p-nitroaniline, which is detected with a spectrophotometer by measuring the absorbance at a wavelength of 405 nm. An inhibition of the elastase enzyme is identified by a decrease in the amount of released p-nitroaniline when compared to uninhibited enzyme.
Test material BM was supplied as a powder. 100 mg of BM was combined with either 5 ml of ethanol or 5 ml of ultrapure water in 15 ml centrifuge tubes. […]
After measuring the protein concentration of the lysate, a small sample was obtained and the elastase activity of the lysate was determined at 100%, 50% and 25% concentrations using 2× elastase buffer to make the dilutions. […] After the incubation the well plate was read at 405 nm using a microplate reader. The mean absorbance for each concentration of the lysate was plotted versus its respective concentration. […]

Percent Inhibition (elastase)	SMILES	Percent of Maximal Migration (human PMN leukocytes)
–	C[C@@H]1[C@H](O)[C@@H](C)/C=C/C=C/C=C/C=C/C=C/C=C/C=C/[C@H](O[C@@H]2O[C@H](C)[C@@H](O)[C@H](N)[C@@H]2O)C[C@@H]2O[C@](O)(C[C@@H](O)C[C@@H](O)[C@H](O)CC[C@@H](O)C[C@@H](O)CC(=O)O[C@H]1C)C[C@H](O)[C@H]2C(=O)O [Amphotericin B]	9.4 ± 0.6%
94%	CC(C)C[C@H](NP(=O)(O)O[C@@H]1O[C@@H](C)[C@H](O)[C@@H](O)[C@H]1O)C(=O)N[C@@H](Cc1c[nH]c2ccccc12)C(=O)O [Phosphoramidon]	–
